This is an account of results in patent US20180221352A1, “3-(1H-PYRROLO[2,3-C]PYRIDIN-2-YL)-1H-PYRAZOLO[3,4-B]PYRIDINES AND THERAPEUTIC USES THEREOF” (Samumed, LLC, priority 2015, published 2018).

Assay type in all cases: cell-based
For one assay, the system named is IL-6. Nature of the assay: IL-6 inhibition in LPS-stimulated THP-1 cells (HTRF). The note with it: Homo sapiens; for EC50: THP-1 cells, LPS 500 ng/mL, 22 hours, IL6 HTRF; for inhibition at 10 µM: THP-1, read-out: percent inhibition at 10 μM. The protocol:
THP-1 cells were cultured in basal media with 1% FBS for 24 hours before the start of the assay. […] THP-1 cells were plated at 5000 cells/well in the 384-well plates and incubated at 37° C. for 2 h. 500 ng/mL of LPS was added after 2 hours and cells were incubated for another 22 hours at 37° C. Plates were spun in a centrifuge for 1 minute at […] and a mixture of anti-IL6 XL665, and anti-IL6 Cryptate diluted in reconstitution buffer (Cisbio Inc.) was added to each well. Following incubation for 3 hrs at room temperature, Homogeneous Time-Resolved Fluorescence (HTRF) was measured using the Envision (Perkin Elmer) at 665 nm and […]. The ratio of fluorescence at 665 nm to 620 nm was used as a readout for IL6 quantification. All samples were processed in duplicate. Readings were normalized to DMSO treated cells and normalized activities were utilized for EC50 calculations using the dose-response log (inhibitor) vs. response−variable slope (four parameters) nonlinear regression feature available in GraphPad Prism 5.0 (or Dotmatics).

In assay [1] the test system is Wnt activity (Sp5-Luc reporter, SW480 colon carcinoma cells). Nature of the assay: Wnt activity screening assay, Sp5-Luc reporter gene in SW480 cells. To be noted: Homo sapiens; for EC50: Sp5-Luc reporter, SW480 cells, overnight incubation. The text has this: The screening assay for Wnt activity is described as follows. Reporter cell lines can be generated by stably transducing cancer cell lines (e.g., colon cancer) or primary cells (e.g., IEC-6 intestinal cells) with a lentiviral construct that includes a Wnt-responsive promoter driving expression of the firefly luciferase gene.
SW480 colon carcinoma cells were transduced with a lentiviral vector expressing luciferase with a human Sp5 promoter consisting of a sequence of eight TCF/LEF binding sites. SW480 cells stably expressing the Sp5-Luc reporter gene and a hygromycin resistance gene were selected by treatment with 150 μg/mL of hygromycin for 7 days. These stably transduced SW480 cells were expanded in cell culture and used for all further screening activities. […] For Sp5-Luc reporter gene assays, the cells were plated at 4,000 cells/well in 384-well plates with medium containing 1% fetal bovine serum and incubated overnight at 37° C. and 5% CO2. Following incubation, 20 μl of BrightGlo luminescence reagent (Promega) was added to each well of the 384-well assay plates. The plates were placed on an orbital shaker for 2 min and then luminescence was quantified using the Envision (Perkin Elmer) plate reader. Readings were normalized to DMSO only treated cells, and normalized activities were utilized for EC50 calculations using the dose-response log (inhibitor) vs. response−variable slope (four parameters) nonlinear regression feature available in GraphPad Prism 5.0 (or Dotmatics).

The subject of assay [2] is primary human mesenchymal stem cells (hMSCs). As to the kind of experiment: Induction of chondrogenesis in hMSCs (nodule count). The note with it: 6 days; for EC50: concentration required to induce 50% levels of chondrogenesis vs TGF-β3, read-out: Conc (nM) of 50% TGF-β3 activity; for Emax: relative to TGF-β3 (10 ng/mL) positive control, read-out: Max. Activity as % TGF-β3 activity. The text has this: Representative compounds were screened using primary human mesenchymal stem cells (hMSCs) to determine their ability to induce chondrogenesis (process by which cartilage is developed).
Primary human mesenchymal stem cells (hMSCs) were purchased from Lonza (Walkersville, Md.) and expanded in Mesenchymal Stem Cell Growth Media (Lonza). Cells between passage 3 and 6 were used for the experiments.
To image chondrogenic nodules, the cells were fixed using 4% formaldehyde (Electron Microscopy Sciences), and stained with 2 μg/mL Rhodamine B (Sigma-Aldrich) and 20 μM Nile Red (Sigma-Aldrich) [Johnson K., et. al, A Stem Cell-Based Approach to Cartilage Repair, Science, (2012). […] Number of nodules in each well was normalized to the average of 3 DMSO treated wells on the same plate using Excel (Microsoft Inc.). The normalized averages (fold change over DMSO) of 3 replicate wells for each compound concentration were calculated. Due to solubility limitations of some of the compounds, curve fitting was incomplete leading to inaccurate EC50 determinations.
Using TGF-β3 as a positive control, the concentration of representative compounds required to induce 50% levels of chondrogenesis is reported. In addition, the maximum activity of each compound and the respective dose that each compound reached maximum chondrogenesis activity is reported.

A further assay deals with SW480 colon cancer cells. As to the kind of experiment: Cell viability assay (CellTiter-Blue). The note with it: Homo sapiens; for EC50: 96 h, SW480 cell viability, four days. The protocol:
Representative compounds were screened using the following assay procedure to assess the effect on cell viability as described below.
Approximately 2×10^3 SW480 colon cancer cells were seeded into each well and allowed to incubate in the presence or absence of compound for four days at 37° C./5% CO2. Eight replicates of DMSO-treated cells served as controls and cells treated with compound were performed in duplicate.
After incubation, 20 μL of CellTiter-Blue (Promega) was added to each well allowed to incubate for approximately 3 hours. This reagent was a buffered solution which contains resazurin, metabolically active cells were able to reduce rezarurin (blue) into resorufin (pink) which was highly fluorescent. This measured fluorescence was used as a readout for cell viability.
On the technique in general: The colour change of resazurin is a common sign of viable cells or microbes.

For assay [3], the system named is primary human fibroblasts derived from IPF patients (LL29 cells). As to the kind of experiment: Inhibition of fibrotic process, αSMA staining in TGF-β1 treated fibroblasts. The note with it: Fibroblast, 96 h, LL29 cells, TGF-β1 20 ng/mL, 4 days, % αSMA positive cells. As for the experimental part: Representative compounds were screened using primary human fibroblasts (derived from IPF patients) treated with TGF-β1 to determine their ability to inhibit the fibrotic process.
LL29 cells are plated at 1,500 cells/well in 80 μL/well F12 medium supplemented with 1% Fetal Bovine Serum. […] Wells treated with TGF-31 and containing DMSO were used as controls. […] Following incubation for 4 days, SYTOX green nucleic acid stain (Life Technologies [Thermo Fisher Scientific]) was added to the wells at a final concentration of 1 μM and incubated at room temperature for 30 min.

With `CCC(=O)Nc1cncc(-c2cnc3[nH]nc(-c4cc5c(-c6cccc(F)c6)cncc5[nH]4)c3c2)c1` [Compound 1, N-(5-(3-(4-(3-Fluorophenyl)-1H-pyrrolo[2,3-c]pyridin-2-yl)-1H-pyrazolo [3,4-b]pyridin-5-yl)pyridin-3-yl)propionamide], the EC50 in the assay on IL-6 turned out to be 1180 nM; in assay [1], 246 nM; in assay [2], 10 nM; with SW480 colon cancer cells it was 771 nM; in assay [3], 859 nM. In addition, the Emax in assay [2] stood at 113%.

For the molecule `Fc1cccc(-c2cncc3[nH]c(-c4n[nH]c5ncc(-c6cccnc6)cc45)cc23)c1` [Compound 4, 3-(4-(3-Fluorophenyl)-1H-pyrrolo[2,3-c]pyridin-2-yl)-5-(pyridin-3-yl)-1H-pyrazolo[3,4-b]pyridine], the EC50 worked out at 232 nM with IL-6, 572 nM in assay [1], 1070 nM in the assay on SW480 colon cancer cells and 1010 nM in assay [3]. Moreover, in assay [2], the Emax is 36%.

For `CC(C)Nc1cncc(-c2cnc3[nH]nc(-c4cc5c(-c6cccc(F)c6)cncc5[nH]4)c3c2)c1` [Compound 12, 5-(3-(4-(3-Fluorophenyl)-1H-pyrrolo[2,3-c]pyridin-2-yl)-1H-pyrazolo[3,4-b]pyridin-5-yl)-N-isopropylpyridin-3-amine], the EC50 in the assay on IL-6 was 148 nM; in assay [1], 238 nM; in assay [2], 900 nM; in the assay on SW480 colon cancer cells it was 851 nM; in assay [3] it was 713 nM. Besides, in assay [2], the Emax stood at 104%.

In the case of `Fc1cccc(-c2cncc3[nH]c(-c4n[nH]c5ncc(-c6cncc(CN7CCCCC7)c6)cc45)cc23)c1` [Compound 15, 3-(4-(3-Fluorophenyl)-1H-pyrrolo[2,3-c]pyridin-2-yl)-5-(5-(piperidin-1-ylmethyl)pyridin-3-yl)-1H-pyrazolo[3,4-b]pyridine], the inhibition – broadly, how much of the control response was suppressed – at 10 µM in the assay on IL-6 came to 41%. Besides, the EC50 was > 10000 nM with IL-6; 3120 nM in assay [1]; 10 nM in assay [2]; 3260 nM with SW480 colon cancer cells; 1970 nM in assay [3]. Moreover, the Emax in assay [2] came out at 108%.

`Fc1cccc(-c2cncc3[nH]c(-c4n[nH]c5ncc(-c6cncc(CNCc7ccccc7)c6)cc45)cc23)c1` [Compound 24, N-Benzyl-1-(5-(3-(4-(3-fluorophenyl)-1H-pyrrolo[2,3-c]pyridin-2-yl)-1H-pyrazolo[3,4-b]pyridin-5-yl)pyridin-3-yl)methanamine]: the EC50 with IL-6 came out at 2090 nM; in assay [1] it was 3920 nM; in assay [2], 900 nM; in the assay with SW480 colon cancer cells, 2800 nM; in assay [3], 1280 nM. The Emax in assay [2] was found to be 65%.

Turning to `Cc1ccncc1-c1cnc2[nH]nc(-c3cc4c(-c5ccc(F)cc5)cncc4[nH]3)c2c1` [Compound 33, 3-(4-(4-Fluorophenyl)-1H-pyrrolo[2,3-c]pyridin-2-yl)-5-(4-methylpyridin-3-yl)-1H-pyrazolo[3,4-b]pyridine], the inhibition at 10 µM in the assay with IL-6 stood at 26.1%; in assay [1] (SW480, read-out: percent inhibition at 10 μM), 49.4%. Besides, the EC50 is > 10000 nM in the assay on IL-6; > 10000 nM in assay [1]; 10 nM in assay [2]; 2090 nM with SW480 colon cancer cells; 1040 nM in assay [3]. Further, in assay [2], the Emax turned out to be 67%.

`Fc1ccc(-c2cncc3[nH]c(-c4n[nH]c5ncc(-c6cncc(CN7CCCC7)c6)cc45)cc23)cc1` [Compound 42, 3-(4-(4-Fluorophenyl)-1H-pyrrolo[2,3-c]pyridin-2-yl)-5-(5-(pyrrolidin-1-ylmethyl)pyridin-3-yl)-1H-pyrazolo[3,4-b]pyridine]: the EC50 in the assay with IL-6 turned out to be 3270 nM; in assay [1], 2140 nM; in assay [2] it was 2700 nM; in the assay on SW480 colon cancer cells, 940 nM; in assay [3], 1290 nM. Moreover, the Emax in assay [2] was 133%.

Turning to `Fc1ccc(-c2cncc3[nH]c(-c4n[nH]c5ncc(-c6cncnc6)cc45)cc23)cc1` [Compound 55, 3-(4-(4-Fluorophenyl)-1H-pyrrolo[2,3-c]pyridin-2-yl)-5-(pyrimidin-5-yl)-1H-pyrazolo[3,4-b]pyridine], the inhibition at 10 µM with IL-6 came to 29.8%. The EC50 in the assay on IL-6 was > 10000 nM; in assay [1] it was 594 nM; in the assay with SW480 colon cancer cells it was 1130 nM; in assay [3] it was 854 nM. In assay [2], the Emax worked out at 24%.

Consider `CCNCc1cncc(-c2cnc3[nH]nc(-c4cc5c(-c6ccccc6F)cncc5[nH]4)c3c2)c1` [Compound 62, N-((5-(3-(4-(2-Fluorophenyl)-1H-pyrrolo[2,3-c]pyridin-2-yl)-1H-pyrazolo [3,4-b]pyridin-5-yl)pyridin-3-yl)methyl)ethanamine], for which the EC50 in the assay on IL-6 came out at 9080 nM; in assay [1], 2300 nM; in the assay on SW480 colon cancer cells, 1910 nM; in assay [3], 2670 nM. In addition, the Emax in assay [2] is 37%.

`CC(C)C(=O)Nc1cncc(-c2cnc3[nH]nc(-c4cc5c(-c6ccccc6F)cncc5[nH]4)c3c2)c1` [Compound 65, N-(5-(3-(4-(2-Fluorophenyl)-1H-pyrrolo[2,3-c]pyridin-2-yl)-1H-pyrazolo [3,4-b]pyridin-5-yl)pyridin-3-yl)isobutyramide]: the EC50 in the assay with IL-6 amounted to 1440 nM; in assay [1], 2090 nM; in the assay with SW480 colon cancer cells, 2860 nM; in assay [3], 2390 nM. Further, the Emax in assay [2] was 45%.

As to `Cn1cc(-c2cnc3[nH]nc(-c4cc5c(-c6cc(F)cc(CNS(C)(=O)=O)c6)cncc5[nH]4)c3c2)cn1` [Compound 764, N-(3-Fluoro-5-(2-(5-(1-methyl-1H-pyrazol-4-yl)-1H-pyrazolo[3,4-b]pyridin-3-yl)-1H-pyrrolo[2,3-c]pyridin-4-yl)benzyl)methanesulfonamide], the EC50 with IL-6 is 199 nM; in assay [1] it was 1160 nM; in the assay on SW480 colon cancer cells, > 10000 nM; in assay [3] it was 1040 nM. Besides, the inhibition at 10 µM with SW480 colon cancer cells (SW480, 96 h, read-out: percent inhibition at 10 μM) came to 0%.
